T1: AceAPa (ICLPa) (Pseudomonas aeruginosa, UniProt Q9I0K4)
T1 construct: gene PA2634; full-length, N-terminal His6 tag TEV-cleaved (pET-19m), expressed in E. coli
T1 sequence (Q9I0K4 1-531): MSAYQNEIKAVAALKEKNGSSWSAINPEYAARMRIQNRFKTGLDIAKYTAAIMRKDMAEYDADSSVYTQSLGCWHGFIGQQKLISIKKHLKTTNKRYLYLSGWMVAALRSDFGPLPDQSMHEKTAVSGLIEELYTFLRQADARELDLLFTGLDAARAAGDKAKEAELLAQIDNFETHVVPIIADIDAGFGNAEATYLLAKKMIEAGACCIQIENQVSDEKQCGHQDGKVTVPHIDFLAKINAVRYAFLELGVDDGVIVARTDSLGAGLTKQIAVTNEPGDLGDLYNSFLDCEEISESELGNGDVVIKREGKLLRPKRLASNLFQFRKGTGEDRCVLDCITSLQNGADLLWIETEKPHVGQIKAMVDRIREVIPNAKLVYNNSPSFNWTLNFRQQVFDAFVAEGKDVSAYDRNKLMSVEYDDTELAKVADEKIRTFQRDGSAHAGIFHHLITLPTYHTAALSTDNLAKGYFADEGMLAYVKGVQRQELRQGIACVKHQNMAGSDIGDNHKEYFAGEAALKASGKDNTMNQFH

T2: PrpBPa (Pseudomonas aeruginosa, UniProt Q9I5E2)
T2 construct: gene prpB; full-length, N-terminal His6 tag TEV-cleaved (pET-19m), expressed in E. coli; homotetramer (dimer of dimers)
T2 sequence (Q9I5E2 1-298): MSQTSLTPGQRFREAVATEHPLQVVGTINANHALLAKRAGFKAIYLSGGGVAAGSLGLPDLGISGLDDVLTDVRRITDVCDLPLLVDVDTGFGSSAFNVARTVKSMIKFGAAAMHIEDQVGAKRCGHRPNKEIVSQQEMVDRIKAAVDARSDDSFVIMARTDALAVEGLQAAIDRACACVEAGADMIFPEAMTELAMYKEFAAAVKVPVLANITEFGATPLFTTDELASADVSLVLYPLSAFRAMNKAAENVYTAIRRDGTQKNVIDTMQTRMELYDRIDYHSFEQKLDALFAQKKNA

B1: 2-methylisocitrate lyase PrpB from Pseudomonas aeruginosa (PrpBPa) (enzyme, Pseudomonas aeruginosa PAO1)
chain: T2 sequence (Q9I5E2 1-298)
notes: 2-methylisocitrate lyase PrpB, Pseudomonas aeruginosa PAO1, locus PA0796, PCR-amplified from PAO1 genomic DNA and cloned into pET-19m; 32.1 kDa; In the crystal structures the termini and the active site loop (residues 121-131) are not resolved; also called 2-MICL; PA0796; source: E. coli, purified (Ni-NTA; His6 tag removed with TEV protease); not shown: His6, N-terminal, cleaved

Key:
[1] = target: T1, AceAPa (ICLPa); experiment: phenylhydrazine-based isocitrate lyase assay, […] nm; format: biochemical; details: 4 mM DL-isocitric acid, 25 mM imidazole pH 7.0, 10 mM EDTA, 5 mM MgCl2
[2] = target: T1, AceAPa (ICLPa); experiment: LDH-coupled assay, NADH oxidation at […] nm; format: biochemical; details: 50 mM Hepes pH 7.5, 2.5 mM MgCl2, 5 mM DTT, 37 °C; racemic threo substrate
[3] = target: T2, PrpBPa; experiment: LDH-coupled assay, inhibitor screen, relative activity; format: biochemical; details: 1 mM compound, 5 min preincubation; pH 7.5, Mg2+, DTT, 37 °C
[4] = substrate: CC(O)(C(=O)O)C(CC(=O)O)C(=O)O; experiment: purified protein; format: biochemical, Pseudomonas aeruginosa; details: 50 mM Hepes pH 7.5, 2.5 mM MgCl2, 5 mM DTT, 37 °C, DTT-pretreated enzyme, racemic threo substrate
[5] = target: the molecule itself; experiment: crystal structure; apo-PrpBPa (1.8 Å) and PrpBPa with Mg2+/pyruvate (1.76 Å, crystal soak); tetramer in the asymmetric unit; crystals from Tris-HCl pH 8.5, PEG 4000, LiSO4, 5 mM DTT, 19 °C

Molecule	relative activity at 1 mM [3]	further results
O=C(O)CC(C(=O)O)C(O)C(=O)O (racemic) [DL isocitric acid]	–	phenylhydrazine-based isocitrate lyase assay, 324 nm [1]: could catalyze the cleavage of isocitrate into glyoxylate and succinate
CC(O)(C(=O)O)C(CC(=O)O)C(=O)O (racemic) [threo-2-methylisocitrate]	–	LDH-coupled assay, NADH oxidation at 340 nm [2]: purified AceAPa demonstrated robust 2-MICL activity in vitro
O=C(O)CC[N+](=O)[O-] [3-nitropropionic acid]	3-nitropropionic acid was also a potent inhibitor of PrpBPa	–
O=C[C@H](O)COP(=O)(O)O [D-glyceraldehyde 3-phosphate]	α-ketoglutarate, cis-aconitic acid, and D-glyceraldehyde 3-phosphate were all potent inhibitors of PrpBPa	–
O=C(O)/C=C\C(=O)O [Maleic acid]	Maleic acid was a nonphysiological inhibitor	–
O=C(O)/C=C(/CC(=O)O)C(=O)O [cis-aconitic acid]	α-ketoglutarate, cis-aconitic acid, and D-glyceraldehyde 3-phosphate were all potent inhibitors of PrpBPa	–
O=C(O)CCC(=O)C(=O)O [α-ketoglutarate]	α-ketoglutarate, cis-aconitic acid, and D-glyceraldehyde 3-phosphate were all potent inhibitors of PrpBPa	–
B1	–	Km [4]: 632 ± 158 µM; kcat [4]: 48.2 ± 4.2 s⁻¹; stoichiometry N [5]: 4

Reference: paper PMC11982470, “The 2-methylcitrate cycle and the glyoxylate shunt in Pseudomonas aeruginosa are linked through enzymatic redundancy” (The Journal of Biological Chemistry, 2025)
